Holding throughout (format): physicochemical
One data set in a line: Refractive index.
Data set [1] in a line: Critical solubility temperature in hexane (CST), qualitative measure of lipophilicity / tissue penetration. From the text:
The tissue penetration capacity can be described qualitatively by the critical solubility temperature in hexane (abbreviation: CST). This qualitative measure of lipophilicity is at the same time a measure of the capacity for tissue penetration.

A short description of data set [2]: Sterilization in an autoclave (stability). The following applies: 121° C. in an autoclave. As to the method:
The highly fluorinated oligomer (C6F13CHCH2)3 is dissolved in fluorocarbons and purified via an Al2O3 chromatographic column. After removal of the solvent the last traces of volatile contaminants are removed in a vacuum. The highly fluorinated trimer according to nuclear spin resonance, infrared and mass spectroscopic tests, a uniform and highly pure substance with a molecular weight of 1055. Charging with an active agent takes place under mild conditions via a solvent that is not miscible with the trimer after distribution to saturation concentration. β-Carotene as active agent changes the color of the oligomer slightly. […] The nuclear magnetic data of this substance are as follows: […]

A further data set can be described thus: Density.
Another data set can be described thus: Viscosity.
A further data set can be described thus: Surface tension.

As to (C6F13CHCH2)3 [Example 1], the “Refractive index n^D20” value in the data set “Refractive index” turned out to be 1.3351. Further, the “Critical solubility temperature in n-hexane, CST” value in data set [1] came to 35 °C. Also, the Stability on sterilization result in data set [2] is listed as “without the physical or chemical properties of the substances being changed”. The substance also came in with a Density in the data set “Density” of 1.661 g/mL. This substance yielded a Viscosity in the data set “Viscosity” of 220 mPa·sec. Also, the Surface tension in the data set “Surface tension” is reported as 19.5 mN/m.

Source of the values: patent US7026359B1, “Utilization of a highly fluorinated oligomeric alkane in ophthalmology” (Bausch & Lomb Incorporated, priority 1999, dated 2006).
